From ChEMBL document CHEMBL1681636, “Exploring subtype selectivity and metabolic stability of a novel series of ligands for the benzodiazepine binding site of the GABAA receptor” (Bioorg Med Chem Lett, 2011)
Active and inactive are the calls of the source. The calls are words filed in the database; no cut-off is given here.

Legend:
[1] = biological target: T1, Gamma-aminobutyric acid receptor subunit alpha-1 (Homo sapiens, UniProt P14867); test: Displacement of [3H]flumazenil from GABAA receptor subunit alpha-1 expressed in CHO cells; format: cell-based
T1 sequence (P14867 whole entry): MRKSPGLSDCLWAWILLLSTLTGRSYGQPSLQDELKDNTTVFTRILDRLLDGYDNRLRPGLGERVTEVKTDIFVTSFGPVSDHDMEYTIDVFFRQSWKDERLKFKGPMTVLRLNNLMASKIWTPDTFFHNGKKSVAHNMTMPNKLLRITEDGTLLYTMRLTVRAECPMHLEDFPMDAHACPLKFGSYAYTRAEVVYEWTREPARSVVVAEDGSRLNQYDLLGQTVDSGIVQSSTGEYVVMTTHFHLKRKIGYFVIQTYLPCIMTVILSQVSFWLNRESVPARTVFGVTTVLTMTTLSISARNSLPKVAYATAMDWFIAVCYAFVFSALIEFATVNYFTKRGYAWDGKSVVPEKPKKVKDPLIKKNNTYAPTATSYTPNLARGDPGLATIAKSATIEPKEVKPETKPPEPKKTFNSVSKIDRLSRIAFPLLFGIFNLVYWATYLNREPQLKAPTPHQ

[2] = biological target: T2, Gamma-aminobutyric acid receptor subunit alpha-2 (Homo sapiens, UniProt P47869); test: Displacement of [3H]flumazenil from GABAA receptor subunit alpha-2 expressed in CHO cells; format: cell-based
T2 sequence (P47869 whole entry): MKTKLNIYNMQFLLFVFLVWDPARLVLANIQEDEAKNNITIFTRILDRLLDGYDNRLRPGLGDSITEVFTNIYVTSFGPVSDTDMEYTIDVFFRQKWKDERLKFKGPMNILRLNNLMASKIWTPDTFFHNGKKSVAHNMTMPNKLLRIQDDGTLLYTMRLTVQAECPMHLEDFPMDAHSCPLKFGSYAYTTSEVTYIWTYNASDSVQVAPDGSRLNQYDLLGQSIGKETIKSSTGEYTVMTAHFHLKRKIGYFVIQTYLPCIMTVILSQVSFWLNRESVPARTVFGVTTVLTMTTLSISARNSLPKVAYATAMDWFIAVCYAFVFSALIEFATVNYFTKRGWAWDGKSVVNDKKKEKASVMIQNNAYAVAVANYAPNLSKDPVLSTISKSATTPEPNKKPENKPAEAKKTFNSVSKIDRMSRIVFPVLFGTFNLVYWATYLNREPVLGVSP

[3] = biological target: T3, Gamma-aminobutyric acid receptor subunit alpha-1 (Homo sapiens) (UniProt P14867); test: Agonist activity at recombinant GABAA receptor subunit alpha-1 expressed in CHO cells at 3 uM by sensitive fluorometric read-out assay relative to midazolam; format: functional, cell-based
T3 sequence (whole entry): T1 sequence (P14867 whole entry)

[4] = biological target: T4, Gamma-aminobutyric acid receptor subunit alpha-2 (Homo sapiens) (UniProt P47869); test: Agonist activity at recombinant GABAA receptor subunit alpha-2 expressed in CHO cells at 3 uM by sensitive fluorometric read-out assay relative to midazolam; format: functional, cell-based
T4 sequence (whole entry): T2 sequence (P47869 whole entry)

[5] = biological target: T4, Gamma-aminobutyric acid receptor subunit alpha-2 (Homo sapiens); test: Agonist activity at recombinant GABAA receptor subunit alpha-2 expressed in CHO cells at 1 uM by sensitive fluorometric read-out assay relative to midazolam; format: functional, cell-based
[6] = biological target: T3, Gamma-aminobutyric acid receptor subunit alpha-1 (Homo sapiens); test: Agonist activity at recombinant GABAA receptor subunit alpha-1 expressed in CHO cells at 1 uM by sensitive fluorometric read-out assay relative to midazolam; format: functional, cell-based
[7] = Intrinsic clearance in rat liver microsomes at 5 uM after 60 mins; format: ADME, Microsome

Clc1ccc(-n2nc3c(cnc4ccccc43)c2OCc2ccccc2Cl)cc1
IC50 [1]: 64 nM
IC50 [2]: 265 nM
Efficacy [3]: 13%
Efficacy [4]: 22%

CC1(C)CCc2ncc3c(OCc4ccccc4Cl)n(-c4ccc(Cl)cc4)nc3c2C1
IC50 [1]: 67 nM
IC50 [2]: 213 nM
Efficacy [3]: 4%
Efficacy [4]: 23%

O=C1C2C=Nc3ccccc3C2=NN1c1ccc(Cl)cc1 (centres undefined) [CGS-9896]
IC50 [1]: 1 nM
Efficacy [5]: 47%
IC50 [2]: 4 nM
Efficacy [6]: 38%

Clc1ccc(-n2nc3c(cnc4ccc(-n5ccnc5)cc43)c2OCC2CC2)cc1
IC50 [1]: 134 nM
IC50 [2]: 2110 nM
Efficacy [3]: 80%
Efficacy [4]: 35%

Clc1ccc(-n2nc3c4c(ncc3c2OCC2CC2)CCCC4)cc1
IC50 [1]: 94 nM
IC50 [2]: 185 nM
Efficacy [3]: 18%
Efficacy [4]: 64%

Clc1ccc(COc2c3cnc4c(c3nn2-c2ccc(Cl)cc2)CCCC4)cc1
IC50 [1]: 157 nM
IC50 [2]: 177 nM
Efficacy [3]: 20%
Efficacy [4]: 42%

Clc1ccc(-n2nc3c4c(ncc3c2Oc2ccccc2Cl)CCCC4)cc1
IC50 [1]: > 3000 nM
IC50 [2]: > 3000 nM
Efficacy [3]: inactive
Efficacy [4]: inactive

FC(F)(F)c1ccccc1COc1c2cnc3c(c2nn1-c1ccc(Cl)cc1)CCCC3
Efficacy [3]: 84%
Efficacy [4]: 94%

Clc1ccccc1COc1c2cnc3ccccc3c2nn1-c1ccc2c(c1)OCO2
IC50 [1]: 50 nM
IC50 [2]: 155 nM
Efficacy [3]: -15%
Efficacy [4]: 19%

Clc1ccc(-n2nc3c4c(ncc3c2OCc2cccc(Cl)c2)CCCC4)cc1
Efficacy [3]: 38%
Efficacy [4]: 50%

Clc1ccc(-n2nc3c4c(ncc3c2OCc2ccccc2Cl)CCCC4)cc1
IC50 [1]: 46 nM
IC50 [2]: 271 nM
Efficacy [3]: 25%
Efficacy [4]: 50%
microsomal CLint at 5 µM [7]: 128 µL/min/mg

Fc1ccc(COc2c3cnc4c(c3nn2-c2ccc(Cl)cc2)CCCC4)cc1
IC50 [1]: 50 nM
IC50 [2]: 57 nM
Efficacy [3]: 24%
Efficacy [4]: 41%

Fc1ccccc1-n1nc2c(cnc3ccccc32)c1OCc1ccccc1Cl
IC50 [1]: 1 nM
IC50 [2]: 2 nM
Efficacy [3]: -8%
Efficacy [4]: 17%

Clc1ccc(-n2nc3c4c(ncc3c2OCc2ccccc2Cl)CCOC4)cc1
IC50 [2]: 461 nM
Efficacy [3]: 4%
Efficacy [4]: 32%

Clc1ccc(-n2nc3c4c(ncc3c2OCc2ccccc2Cl)CCCCC4)cc1
IC50 [1]: 242 nM
IC50 [2]: 605 nM
Efficacy [3]: 114%
Efficacy [4]: 96%

Clc1ccc(-n2nc3c(cnc4ccccc43)c2OCC2CC2)cc1
IC50 [1]: 74 nM
IC50 [2]: 472 nM
Efficacy [3]: 37%
Efficacy [4]: 36%

Fc1ccccc1COc1c2cnc3c(c2nn1-c1ccc(Cl)cc1)CCCC3
IC50 [1]: 64 nM
IC50 [2]: 154 nM
Efficacy [3]: 31%
Efficacy [4]: 83%
